According to ChEMBL document CHEMBL1201862, “PubChem BioAssay data set” (2004):
Several values for one entry are separate records, joined by “and”; a condition that tells them apart may be missing. Equal entries are not always repeated. Activity calls are given as the source filed them.

Key:
[1] = target: T1, Ubiquitin-conjugating enzyme E2 N (Homo sapiens, UniProt P61088); format: functional
T1 sequence (P61088 whole entry): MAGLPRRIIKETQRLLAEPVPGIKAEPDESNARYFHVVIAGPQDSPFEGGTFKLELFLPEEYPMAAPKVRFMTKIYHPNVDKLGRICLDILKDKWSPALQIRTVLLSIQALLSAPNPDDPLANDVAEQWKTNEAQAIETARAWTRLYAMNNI

[2] = target: T2, Bcl-2-related protein A1 (Mus musculus, UniProt Q07440); format: functional;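 further: confirmatory dose–response counterscreen on Bfl-1, used to check hits from a UBC13 polyubiquitin inhibitor campaign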
T2 sequence (Q07440 whole entry): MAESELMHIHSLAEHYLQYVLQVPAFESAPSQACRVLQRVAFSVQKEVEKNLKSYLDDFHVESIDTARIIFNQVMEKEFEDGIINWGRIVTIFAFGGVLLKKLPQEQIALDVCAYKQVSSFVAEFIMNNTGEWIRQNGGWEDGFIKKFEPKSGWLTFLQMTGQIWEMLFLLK

[3] = target: T1, Ubiquitin-conjugating enzyme E2 N; format: functional; remark: listed apart in the source
[4] = target: Protein disulfide-isomerase (Homo sapiens, UniProt P07237); assay: PDI inhibitors, insulin aggregation turbidity, dose response, biochemical, absorbance, cherry-picked samples (AID 602350); format: functional
Sequence of Protein disulfide-isomerase (P07237 whole entry): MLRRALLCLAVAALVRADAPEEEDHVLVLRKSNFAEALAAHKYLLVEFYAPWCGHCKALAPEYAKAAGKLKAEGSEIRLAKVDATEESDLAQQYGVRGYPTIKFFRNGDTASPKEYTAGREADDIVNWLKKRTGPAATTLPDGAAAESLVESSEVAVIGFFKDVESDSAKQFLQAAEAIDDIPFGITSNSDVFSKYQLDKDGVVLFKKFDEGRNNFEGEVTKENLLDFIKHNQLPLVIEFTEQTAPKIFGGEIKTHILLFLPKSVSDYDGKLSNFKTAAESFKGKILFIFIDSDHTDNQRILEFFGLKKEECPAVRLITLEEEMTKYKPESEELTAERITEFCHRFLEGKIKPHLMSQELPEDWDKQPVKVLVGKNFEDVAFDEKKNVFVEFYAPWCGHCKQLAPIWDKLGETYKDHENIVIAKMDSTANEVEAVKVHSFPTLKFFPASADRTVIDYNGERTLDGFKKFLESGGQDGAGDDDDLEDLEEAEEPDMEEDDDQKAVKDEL

[5] = target: T3, CAAX prenyl protease 2 (Saccharomyces cerevisiae S288c, UniProt Q03530); format: biochemical
T3 sequence (Q03530 whole entry): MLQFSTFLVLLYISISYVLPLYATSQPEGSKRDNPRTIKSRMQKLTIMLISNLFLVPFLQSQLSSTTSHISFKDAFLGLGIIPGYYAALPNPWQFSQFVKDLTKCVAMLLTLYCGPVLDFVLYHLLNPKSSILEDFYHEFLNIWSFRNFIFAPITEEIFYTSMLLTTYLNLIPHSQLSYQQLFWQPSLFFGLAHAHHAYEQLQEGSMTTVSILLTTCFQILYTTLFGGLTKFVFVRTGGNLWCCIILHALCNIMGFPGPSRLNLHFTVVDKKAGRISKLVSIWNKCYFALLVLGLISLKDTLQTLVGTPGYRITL

[6] = system: H4; assay: Luminescence Cell-Based Dose Response HTS to Identify Activators of 5'UTR Stem-Loop Driven Prion Protein mRNA Translation in H4 Neuroglioblastoma Cells. [Related pubchem assays: 1829 (Project Summary), 1814 (Primary HTS)]; format: functional; settings: Homo sapiens
[7] = target: T4, Caspase-6 (Homo sapiens, UniProt P55212); assay: human caspase-6 inhibitors, dose response, biochemical, VEID-R110 fluorescence, cherry-pick (AID 720632)
T4 sequence (P55212 whole entry): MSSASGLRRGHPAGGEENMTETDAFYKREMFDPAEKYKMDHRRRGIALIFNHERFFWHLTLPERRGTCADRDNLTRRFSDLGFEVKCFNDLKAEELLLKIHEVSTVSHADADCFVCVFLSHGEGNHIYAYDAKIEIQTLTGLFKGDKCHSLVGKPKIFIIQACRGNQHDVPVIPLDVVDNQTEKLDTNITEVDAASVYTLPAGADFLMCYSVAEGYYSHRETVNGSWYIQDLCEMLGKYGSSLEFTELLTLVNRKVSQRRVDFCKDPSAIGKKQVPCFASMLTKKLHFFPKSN

[8] = target: T5, Protein RecA (Mycobacterium tuberculosis, UniProt P9WHJ3); assay: Fluorescence Cell-Free Homogeneous Dose Retest to Identify Inhibitors of RecA-Intein Splicing Activity. [Related pubchem assays (depositor defined):AID2097, AID2223, AID489010, AID492950]; format: functional
T5 sequence (P9WHJ3 whole entry): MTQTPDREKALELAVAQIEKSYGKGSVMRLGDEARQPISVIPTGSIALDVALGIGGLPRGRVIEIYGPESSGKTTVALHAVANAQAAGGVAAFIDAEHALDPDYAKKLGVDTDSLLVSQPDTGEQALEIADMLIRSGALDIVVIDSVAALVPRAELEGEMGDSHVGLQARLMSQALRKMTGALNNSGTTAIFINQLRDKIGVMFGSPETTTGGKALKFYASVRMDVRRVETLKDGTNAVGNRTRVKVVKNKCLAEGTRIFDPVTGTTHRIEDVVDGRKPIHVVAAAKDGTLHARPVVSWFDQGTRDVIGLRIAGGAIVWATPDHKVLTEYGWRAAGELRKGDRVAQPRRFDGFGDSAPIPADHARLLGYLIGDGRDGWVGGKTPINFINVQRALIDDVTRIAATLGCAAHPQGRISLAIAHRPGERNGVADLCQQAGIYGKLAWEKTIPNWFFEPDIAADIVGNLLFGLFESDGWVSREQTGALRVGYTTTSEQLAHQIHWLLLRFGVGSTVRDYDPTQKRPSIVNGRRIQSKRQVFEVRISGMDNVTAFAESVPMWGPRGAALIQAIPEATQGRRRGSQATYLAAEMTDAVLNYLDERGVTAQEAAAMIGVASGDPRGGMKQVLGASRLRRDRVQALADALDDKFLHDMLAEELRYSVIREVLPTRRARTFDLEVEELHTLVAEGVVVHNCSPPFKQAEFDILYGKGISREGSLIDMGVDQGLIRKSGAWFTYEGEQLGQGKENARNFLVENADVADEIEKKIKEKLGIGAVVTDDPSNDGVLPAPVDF

[9] = target: T6, CAAX prenyl protease 2 (Homo sapiens, UniProt Q9Y256); assay: human Rce1 protease inhibitors, dose response, biochemical, yeast membranes, quenched-peptide fluorescence, cherry-pick (AID 588849)
T6 sequence (Q9Y256 whole entry): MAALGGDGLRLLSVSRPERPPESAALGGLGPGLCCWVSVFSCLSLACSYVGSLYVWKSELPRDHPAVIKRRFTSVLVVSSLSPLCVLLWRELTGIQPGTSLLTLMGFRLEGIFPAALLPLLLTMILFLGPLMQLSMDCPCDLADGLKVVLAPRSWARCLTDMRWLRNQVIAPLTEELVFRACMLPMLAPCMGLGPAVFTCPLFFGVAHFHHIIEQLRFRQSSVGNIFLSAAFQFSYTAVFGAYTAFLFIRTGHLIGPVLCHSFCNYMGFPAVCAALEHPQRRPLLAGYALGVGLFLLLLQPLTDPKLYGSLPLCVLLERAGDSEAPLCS

[10] = Luminescence Cell-Based Dose Confirmation HTS to Identify Activators of 5'UTR Stem-Loop Driven Alpha-Synuclein mRNA Translation in H4 Neuroglioblastoma Cells. [Related pubchem assays: 1829 (Project Summary), 1814 (Primary HTS)]; format: functional
[11] = Luminescence Cell-Based Dose Response HTS to Identify Activators of Luciferase Translation or Activity in H4 […] Cells. [Related pubchem assays: 1829 (Project Summary), 1814 (Primary HTS)]; format: functional
[12] = target: T7, Insulin-degrading enzyme (Homo sapiens, UniProt P14735); assay: activators of endogenous IDE in HEK cells, dose response, cell-based, fluorescence polarization (AID 588439); format: functional
T7 sequence (P14735 whole entry): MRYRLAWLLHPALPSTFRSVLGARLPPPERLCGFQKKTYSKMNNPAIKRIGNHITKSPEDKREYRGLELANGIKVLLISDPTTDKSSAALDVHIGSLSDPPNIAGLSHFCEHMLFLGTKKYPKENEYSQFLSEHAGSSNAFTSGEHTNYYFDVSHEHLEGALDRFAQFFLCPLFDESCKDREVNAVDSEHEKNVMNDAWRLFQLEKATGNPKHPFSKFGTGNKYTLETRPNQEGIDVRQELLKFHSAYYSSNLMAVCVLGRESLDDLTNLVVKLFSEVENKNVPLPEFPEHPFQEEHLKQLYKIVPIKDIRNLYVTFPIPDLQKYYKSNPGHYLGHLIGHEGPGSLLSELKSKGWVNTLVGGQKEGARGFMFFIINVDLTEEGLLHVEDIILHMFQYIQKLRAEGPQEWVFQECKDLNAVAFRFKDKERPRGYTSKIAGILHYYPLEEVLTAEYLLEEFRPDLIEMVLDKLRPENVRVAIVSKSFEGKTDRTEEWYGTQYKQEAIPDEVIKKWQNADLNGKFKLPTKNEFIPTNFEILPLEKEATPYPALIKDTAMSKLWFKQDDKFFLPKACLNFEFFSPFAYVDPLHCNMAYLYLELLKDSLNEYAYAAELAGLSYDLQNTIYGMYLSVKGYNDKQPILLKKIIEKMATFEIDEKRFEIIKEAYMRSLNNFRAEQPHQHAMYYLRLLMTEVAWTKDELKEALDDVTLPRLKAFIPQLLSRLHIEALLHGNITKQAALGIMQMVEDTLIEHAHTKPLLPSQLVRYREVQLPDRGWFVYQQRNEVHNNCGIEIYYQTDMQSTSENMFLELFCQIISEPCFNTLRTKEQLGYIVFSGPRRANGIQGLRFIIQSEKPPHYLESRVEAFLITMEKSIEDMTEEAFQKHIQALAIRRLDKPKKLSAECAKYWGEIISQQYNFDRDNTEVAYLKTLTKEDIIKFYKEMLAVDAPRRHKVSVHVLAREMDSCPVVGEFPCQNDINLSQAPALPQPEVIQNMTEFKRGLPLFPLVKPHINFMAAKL

[13] = system: HEK293; assay: HEK cell cytotoxicity by LDH release, dose response, cytotoxicity control for IDE activator project, fluorescence, HEK cells (AID 588440); format: functional, cell-based; settings: Homo sapiens;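 further: cytotoxicity by LDH release measuring loss of membrane integrity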
[14] = system: HEK293; assay: optical interference in Abeta FP readout, dose response, artefact control for IDE activator project, biochemical, fluorescence polarization (AID 588442); format: functional, cell-based; settings: Homo sapiens
[15] = target: T7, Insulin-degrading enzyme; assay: activators of recombinant IDE enzyme, dose response, counter-screen for IDE activator project, biochemical, fluorescence polarization (AID 588681)
[16] = cytotoxicity toward NIH3T3 fibroblasts, dose response, counter-screen, cell-based, ATP luminescence, mouse fibroblasts (AID 2010); format: functional;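 further: cells exposed to compound for about 90 hours before reading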
[17] = target: Beta-2 adrenergic receptor (Homo sapiens, UniProt P07550); assay: beta2AR agonists driving receptor internalization, dose response, cell-based, FAP fluorogen, flow cytometry, cherry pick 1 (AID 588763); format: functional
Sequence of Beta-2 adrenergic receptor (P07550 whole entry): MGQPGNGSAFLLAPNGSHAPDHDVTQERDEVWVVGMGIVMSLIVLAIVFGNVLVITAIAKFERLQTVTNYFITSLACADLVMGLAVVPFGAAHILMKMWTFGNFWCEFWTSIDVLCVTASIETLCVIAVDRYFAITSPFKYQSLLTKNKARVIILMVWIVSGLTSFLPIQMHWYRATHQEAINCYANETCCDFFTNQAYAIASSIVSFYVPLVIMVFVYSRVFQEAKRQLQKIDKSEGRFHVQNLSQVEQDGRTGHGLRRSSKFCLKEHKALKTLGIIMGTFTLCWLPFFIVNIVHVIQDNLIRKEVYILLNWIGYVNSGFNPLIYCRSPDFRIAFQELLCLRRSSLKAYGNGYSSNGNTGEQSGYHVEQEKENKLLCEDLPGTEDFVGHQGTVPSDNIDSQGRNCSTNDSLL

[18] = inhibitors of intracellular T. cruzi replication, confirmation, NIH3T3 host cells, beta-gal luminescence (AID 2044); format: functional, cell-based;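 further: intracellular parasites grown in NIH/3T3 mouse fibroblasts as host cells; luminescent beta-galactosidase reporter signal from transgenic T. cruzi replicating inside host cells; inhibitors lower the luminescence signal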
[19] = system: Vero; assay: Vero cell cytotoxicity, cytotoxicity control for flavivirus capping enzyme inhibitors (AID 588742); format: functional; settings: Chlorocebus sabaeus
[20] = target: Melanin-concentrating hormone receptor 1 (Homo sapiens, UniProt Q99705); assay: Late-stage fluorescence-based counterscreen for antagonists of the G-protein coupled receptor 7 (GPR7): cell-based dose response assay to identify antagonists of the melanin-concentrating hormone receptor 1 (MCHR1) Set 5.; format: functional
Sequence of Melanin-concentrating hormone receptor 1 (Q99705 whole entry): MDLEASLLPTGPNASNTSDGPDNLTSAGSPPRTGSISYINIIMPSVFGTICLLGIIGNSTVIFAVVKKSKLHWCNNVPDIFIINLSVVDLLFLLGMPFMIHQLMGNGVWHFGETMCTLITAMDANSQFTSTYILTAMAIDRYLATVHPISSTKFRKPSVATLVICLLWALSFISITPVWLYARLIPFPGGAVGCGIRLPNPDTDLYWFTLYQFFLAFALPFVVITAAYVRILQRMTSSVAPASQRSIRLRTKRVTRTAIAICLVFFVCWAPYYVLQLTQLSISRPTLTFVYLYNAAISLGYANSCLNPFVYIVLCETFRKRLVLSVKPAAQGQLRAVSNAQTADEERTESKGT

[21] = target: Genome polyprotein (dengue virus type 2, UniProt P29990); assay: Dengue-2 NS5 methyltransferase inhibitors, primary screen, biochemical, confirmation dose response (AID 588689); format: functional
Sequence of Genome polyprotein (P29990 2492-3391 limits assumed): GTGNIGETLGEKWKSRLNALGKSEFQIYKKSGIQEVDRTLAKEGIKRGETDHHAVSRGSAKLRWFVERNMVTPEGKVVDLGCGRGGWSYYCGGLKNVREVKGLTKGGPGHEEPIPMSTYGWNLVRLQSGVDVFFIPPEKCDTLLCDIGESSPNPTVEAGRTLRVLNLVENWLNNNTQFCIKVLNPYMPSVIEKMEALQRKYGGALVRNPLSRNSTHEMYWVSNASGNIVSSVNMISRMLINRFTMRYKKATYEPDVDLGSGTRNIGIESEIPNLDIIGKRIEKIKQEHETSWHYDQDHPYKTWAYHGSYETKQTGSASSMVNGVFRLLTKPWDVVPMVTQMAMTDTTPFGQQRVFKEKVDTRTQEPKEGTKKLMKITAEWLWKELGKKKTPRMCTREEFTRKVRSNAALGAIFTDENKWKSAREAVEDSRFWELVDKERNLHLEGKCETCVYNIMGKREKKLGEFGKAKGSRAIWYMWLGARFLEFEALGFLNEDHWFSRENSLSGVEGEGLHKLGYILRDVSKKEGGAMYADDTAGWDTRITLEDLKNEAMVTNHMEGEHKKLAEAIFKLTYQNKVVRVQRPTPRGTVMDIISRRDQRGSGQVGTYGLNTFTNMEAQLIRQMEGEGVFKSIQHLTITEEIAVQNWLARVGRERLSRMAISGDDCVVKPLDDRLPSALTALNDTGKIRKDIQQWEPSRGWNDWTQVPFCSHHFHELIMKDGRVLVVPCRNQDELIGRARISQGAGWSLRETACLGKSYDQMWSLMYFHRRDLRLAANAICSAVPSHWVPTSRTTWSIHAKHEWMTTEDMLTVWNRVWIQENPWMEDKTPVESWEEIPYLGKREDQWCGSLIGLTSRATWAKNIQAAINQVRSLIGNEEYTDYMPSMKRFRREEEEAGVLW

## O=C1C(Cc2cnc[nH]2)NC(=S)N1c1ccccc1 (configuration not stated)
[1]
  IC50: 4 µM (active)
[2]
  IC50: > 20 µM (inactive)
[3]
  IC50: 8.14 µM (active)

## Cc1nnc(O)c2c(NC(=O)CSc3nnnn3-c3ccc(O)cc3)oc(C)c12
[4]
  AC50: 19.5 µM (active)

## Cc1cc(SCC(=O)NC(=O)c2cccn2C)nc2ccccc12
[1]
  IC50: > 20 µM (inactive)
[2]
  IC50: > 20 µM (inactive)
[3]
  IC50: 17.4 µM (active)

## Oc1nc(Nc2ccccn2)cc2ccccc12
[5]
  AC50: > 100 µM (inactive)
[6]
  EC50: 36.8 µM (active)
[7]
  AC50: 5.89 µM (active)
[8]
  EC50: > 380 µM (inactive)
[9]
  AC50: 14 µM (active)
[10]
  EC50: 4 µM (active)
[11]
  EC50: 6.15 µM (active)

## O=C1C=C(c2ccc(-c3ccccc3)cc2)C[C@@H](c2ccc3c(c2)OCO3)C1
[12]
  EC50: > 54.7 µM (inactive)
[13]
  IC50: > 89.2 µM (inactive)
[14]
  EC50: > 54.7 µM (inactive)
[15]
  EC50: > 54.7 µM (inactive)

## C=CCn1c(SCc2ccc(F)cc2)nnc1-c1sc2nc(C)cc(C)c2c1N
[16]
  EC50: > 60 µM (not active)
[17]
  EC50: 0.029 µM (active)
[18]
  EC50: 0.423 µM (active)

## O=C(c1ccc2c(c1)OCO2)N(Cc1cccs1)C1(C(=O)NC2CCCCC2)CCCCC1
[19]
  CC50: > 40 µM (active)

## COc1cc2c(cc1Cl)C(=O)C(F)(c1ccccc1)C(=O)N2 (configuration not stated)
[17]
  EC50: 7.03 µM (inactive)

## CCSc1nc(O)c2c(n1)N=C1CC(C)(C)CC(O)=C1C2c1ccccn1 (configuration not stated)
[9]
  AC50: 9.79 µM (active)

## C/C(CC(=O)N1CCCC1)=N\NC(=O)c1cc2ccccc2cc1O
[19]
  CC50: 17.5 µM (active)
[7]
  AC50: 1.88 µM (active)

## Cc1noc(C)c1S(=O)(=O)Nc1ccc2c(c1)CC(=O)N([C@H](C)CO)C[C@H](C)[C@H](CN(C)S(=O)(=O)c1ccc(F)cc1)O2
[4]
  AC50: 16.9 µM (active) and 19.5 µM (active)

## Cc1ccc(C)c(S(=O)(=O)c2c[nH]c(=S)[nH]c2=O)c1
[1]
  IC50: > 20 µM (inactive)
[2]
  IC50: > 20 µM (inactive)
[3]
  IC50: 14.3 µM (active)

## COc1ccc(Oc2c(Cl)cnn(CC(=O)N(c3ccccc3)c3ccccc3)c2=O)cc1
[20]
  IC50: 10.7 µM (inactive)

## CNC(=S)N(Cc1cccs1)Cc1cc2cc(OC)ccc2nc1O
[12]
  EC50: > 54.7 µM (inactive)
[13]
  IC50: > 89.3 µM (inactive)
[14]
  EC50: > 54.7 µM (inactive)
[15]
  EC50: > 54.7 µM (inactive)

## CC(=O)C1=C(O)C(=O)N(c2cc(C(C)(C)C)on2)C1c1ccc(C(C)C)cc1 (configuration not stated)
[19]
  CC50: > 40 µM (active)
[21]
  IC50: 95.3 µM (active)
